From patent publication US12516049B2, “Sulfonylurea ring substituted monocyclic β-lactam antibiotics” (priority 2019, dated 2026)

How the values were obtained:
[1] = system: E.coli C1569; assay: MIC, two-fold agar dilution, clinical isolate; type: cell-based; details: Escherichia coli, single drug, average of three tests
Protocol: (§1) The minimum inhibitory concentration (MIC) of the compound and combination with β-lactamase (MBLs) inhibitors against clinically isolated carbapenem-resistant enterobacteriaceae was determined by the two-fold agar dilution method to determine the activity of the compound to be tested against strains producing MBLs. Antibiotics and enzyme inhibitors were weighed separately and dissolved in sterile ultrapure water or dimethyl sulfoxide to prepare mother liquor, MHA medium was prepared, pH was adjusted to 7.2-7.4, and it was sterilized at 121° C. for 15 minutes and placed in a 55° C. water bath for heat preservation. The mother liquor was diluted to the concentration to be tested by double dilution method, an inoculum liquid was prepared by direct bacterial suspension method, 1 mL of the prepared bacteria solution was withdrawn and putted into the inoculation tube, and a positioning needle and an inoculation needle were installed. A bacterial multi-point inoculator was started for inoculation. After the bacterial solution was absorbed by the agar, the plate was placed upside down in an incubator at 37° C. for 16-20 hours, and the results were observed. The average of three tests was taken.

[2] = system: E.coli CRE18; assay: MIC, two-fold agar dilution, clinical isolate; type: cell-based; details: Escherichia coli; E.coli CRE18; single drug; average of three tests; read-out: MIC
Protocol: as §1

[3] = system: E.coli CRE21; assay: MIC, two-fold agar dilution, clinical isolate; type: cell-based; details: Escherichia coli; E.coli CRE21; single drug; average of three tests; read-out: MIC
Protocol: as §1

[4] = system: K.p 11544; assay: MIC, two-fold agar dilution, clinical isolate; type: cell-based; details: K.p 11544; single drug; average of three tests; read-out: MIC
Protocol: as §1

[5] = system: Morganella morganii C1274; assay: MIC, two-fold agar dilution, clinical isolate; type: cell-based; details: Morganella morganii, C1274
Protocol: as §1

[6] = system: E.coli 115101; assay: MIC, two-fold agar dilution, clinical isolate; type: cell-based; details: Escherichia coli; E.coli 115101; single drug; average of three tests; read-out: MIC
Protocol: as §1, with “Antibiotics and enzyme inhibitors were weighed separately and dissolved in sterile ultrapure water or dimethyl sulfoxide to prepare mother liquor, MHA medium was prepared, pH was adjusted to 7.2-7.4, and it was sterilized at 121° C. for 15 minutes and placed in a 55° C. water bath for heat preservation.” left out

[7] = system: E.coli 115105; assay: MIC, two-fold agar dilution, clinical isolate; type: cell-based; details: Escherichia coli, single drug, average of three tests
Protocol: as §1, with “Antibiotics and enzyme inhibitors were weighed separately and dissolved in sterile ultrapure water or dimethyl sulfoxide to prepare mother liquor, MHA medium was prepared, pH was adjusted to 7.2-7.4, and it was sterilized at 121° C. for 15 minutes and placed in a 55° C. water bath for heat preservation.” left out

[8] = system: K.p HX30; assay: MIC, two-fold agar dilution, clinical isolate; type: cell-based; details: K.p HX30; single drug; average of three tests; read-out: MIC
Protocol: as §1, with “Antibiotics and enzyme inhibitors were weighed separately and dissolved in sterile ultrapure water or dimethyl sulfoxide to prepare mother liquor, MHA medium was prepared, pH was adjusted to 7.2-7.4, and it was sterilized at 121° C. for 15 minutes and placed in a 55° C. water bath for heat preservation.” left out

[9] = system: Klebsiella pneumoniae ATCC-BAA 2470; assay: Mouse thigh muscle infection model, Klebsiella pneumoniae ATCC-BAA 2470; type: in vivo; details: immunodeficient female CD-1 mice; Klebsiella pneumoniae ATCC-BAA 2470 9.5E+06 CFU/mouse; 200 mg/kg every 2 h from 2 h; end point 24 h
Protocol: 15 female CD-1 mice were divided into 5 cages, 3 mice per cage; the day of infection was counted as day 0.
Immunosuppressant cyclophosphamide 150 mg/kg were injected intraperitoneally on Day-4, and immunosuppressant cyclophosphamide 100 mg/kg was injected intraperitoneally again on the first day to obtain immunodeficient mice.
The strain Klebsiella pneumoniae ATCC-BAA 2470 was recovered on an MHA plate on the first day. The recovered colonies were picked and dissolved in sterile saline to prepare bacterial solution with a concentration of 9.5E+07 CFU/mL for use in mouse thigh muscle infection. The infection starting time was counted as 0 h, and 100 μL of bacterial solution is injected into the thigh muscle of each mouse at 0 h, that is, the inoculation amount is 9.5E+06 CFU/mouse. 2 h after infection, the drugs were administered according to the experimental scheme. The specific experimental scheme is as follows (see Table 5): […]
(2) 2 h after infection: Mice in the second to third cages were administered separately at a volume of 10 mL/kg according to the mouse body weight. […] The amount of bacteria loaded in the thigh muscle tissue of the mouse was counted, and the experimental results were shown in Table 6.

NC[C@@H]1CN(C[C@@H]2[C@H](NC(=O)/C(=N\OC3(C(=O)O)CC3)c3csc(N)n3)C(=O)N2S(=O)(=O)O)S(=O)(=O)N1 [Compound 4]
MIC [1]: 1 µg/mL | MIC [2]: 1 µg/mL | MIC [3]: 1 µg/mL | MIC [4]: 0.06 µg/mL | MIC [5]: 0.125 µg/mL | MIC [6]: 0.5 µg/mL | MIC [7]: 1 µg/mL | MIC [8]: 0.5 µg/mL | Average CFU of the mouse (amount of bacteria loaded in thigh muscle tissue) [9]: 3.93E+06 CFU/mouse
